Laboratory results reported in the NIST ThermoML archive (doi:10.1016/j.tca.2013.03.008).

Assay: xn = mol fraction of the nth substance listed
Settings: 101 kPa, Liquid; for viscosity: Capillary tube (Ostwald / Ubbelohde) method; for mass density: Vibrating tube method

CCOC(=O)CCl [ethyl chloroethanoate] + CCC(=O)CC
Settings	mass density, 298.15 K [kg/m3]	mass density, 308.15 K [kg/m3]	mass density, 318.15 K [kg/m3]	viscosity, 298.15 K [mPa·s]	viscosity, 308.15 K [mPa·s]	viscosity, 318.15 K [mPa·s]
x2 = 0	1144.11	1131.46	1118.74	1.095	0.939	0.815
x2 = 0.0502	1127.54	1115	1102.39	1.05	0.902	0.783
x2 = 0.0877	1115.18	1102.73	1090.21	1.017	0.874	0.76
x2 = 0.1207	1104.29	1091.91	1079.49	0.987	0.85	0.741
x2 = 0.1692	1088.28	1076.05	1063.74	0.944	0.815	0.713
x2 = 0.2551	1059.87	1047.89	1035.82	0.87	0.756	0.666
x2 = 0.3266	1036.16	1024.36	1012.49	0.813	0.71	0.63
x2 = 0.413	1007.44	995.88	984.26	0.75	0.659	0.587
x2 = 0.4998	978.47	967.18	955.81	0.695	0.612	0.548
x2 = 0.574	953.63	942.56	931.39	0.653	0.575	0.517
x2 = 0.6638	923.44	912.62	901.71	0.604	0.533	0.48
x2 = 0.7475	895.2	884.6	873.95	0.562	0.498	0.449
x2 = 0.827	868.26	857.9	847.48	0.522	0.466	0.421
x2 = 0.9114	839.54	829.45	819.27	0.481	0.434	0.391

CCOC(=O)CCl [ethyl chloroethanoate] + CCC(C)O
Settings	mass density, 298.15 K [kg/m3]	mass density, 308.15 K [kg/m3]	mass density, 318.15 K [kg/m3]	viscosity, 298.15 K [mPa·s]	viscosity, 308.15 K [mPa·s]	viscosity, 318.15 K [mPa·s]
x2 = 0	1144.11	1131.46	1118.74	1.095	0.934	0.816
x2 = 0.1008	1111.91	1099.43	1086.98	1.055	0.895	0.778
x2 = 0.204	1078.95	1066.72	1054.42	1.041	0.877	0.755
x2 = 0.2885	1051.67	1039.71	1027.56	1.033	0.875	0.756
x2 = 0.3625	1027.45	1015.7	1003.8	1.048	0.88	0.753
x2 = 0.45	998.34	986.92	975.3	1.107	0.895	0.759
x2 = 0.5384	968.29	957.21	945.94	1.183	0.945	0.791
x2 = 0.6138	942.27	931.52	920.57	1.246	0.987	0.817
x2 = 0.6906	915.31	904.95	894.31	1.332	1.063	0.866
x2 = 0.7724	886.17	876.24	865.99	1.489	1.182	0.947
x2 = 0.8541	856.59	847.12	837.33	1.789	1.367	1.089
x2 = 0.9197	832.49	823.43	814.03	2.183	1.611	1.225

CCC(=O)CC [pentan-3-one] + CCC(C)O
Settings	mass density, 298.15 K [kg/m3]	mass density, 308.15 K [kg/m3]	mass density, 318.15 K [kg/m3]	viscosity, 298.15 K [mPa·s]	viscosity, 308.15 K [mPa·s]	viscosity, 318.15 K [mPa·s]
x1 = 0.0848	803.03	794.48	785.52	2.069	1.539	1.172
x1 = 0.1511	803.42	794.8	785.78	1.602	1.246	0.976
x1 = 0.2353	803.97	795.22	786.14	1.229	0.986	0.802
x1 = 0.3023	804.42	795.58	786.43	1.039	0.854	0.711
x1 = 0.3793	804.94	795.99	786.77	0.879	0.734	0.622
x1 = 0.4676	805.54	796.47	787.16	0.761	0.637	0.55
x1 = 0.4927	805.71	796.61	787.27	0.731	0.612	0.531
x1 = 0.5536	806.12	796.95	787.54	0.657	0.57	0.499
x1 = 0.6269	806.62	797.36	787.87	0.6	0.524	0.461
x1 = 0.7129	807.21	797.84	788.26	0.536	0.482	0.429
x1 = 0.8104	807.89	798.4	788.7	0.494	0.446	0.403
x1 = 0.9043	808.59	798.96	789.15	0.466	0.419	0.378
x1 = 1	809.38	799.55	789.63	0.442	0.398	0.362
